Tested on: Pasteurella multocida
Assay: minimum inhibitory concentration (MIC)
Protocol: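 Broth microdilution MIC (Sensititre BOPO7F bovine plate, CLSI methods) of 19 antimicrobials against field isolates of P. multocida, M. haemolytica, H. somni (deep nasopharyngeal swabs) and E. coli, Enterococcus spp. (rectal swabs) from weaned dairy heifers. Incubation 16-24 h at 35 C. MIC is the lowest concentration preventing visible growth. Values with <= or > lie at the tested range limits. Trimethoprim-sulfamethoxazole is given as the trimethoprim component of a 1:19 mixture.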

`COc1cc(Cc2cnc(N)nc2N)cc(OC)c1OC.Cc1cc(NS(=O)(=O)c2ccc(N)cc2)no1` [trimethoprim-sulfamethoxazole] showed a minimum inhibitory concentration (isolate (source animal id): 10) of at most 2 µg/mL, a minimum inhibitory concentration (isolate (source animal id): 11) of at most 2 µg/mL and a minimum inhibitory concentration (isolate (source animal id): 12) of at most 2 µg/mL. It also gave a minimum inhibitory concentration (isolate (source animal id): 19) of at most 2 µg/mL, a minimum inhibitory concentration (isolate (source animal id): 23) of at most 2 µg/mL and a minimum inhibitory concentration (isolate (source animal id): 26) of at most 2 µg/mL. It also gave a minimum inhibitory concentration (isolate (source animal id): 30) of at most 2 µg/mL, a minimum inhibitory concentration (isolate (source animal id): 34) of at most 2 µg/mL and a minimum inhibitory concentration (isolate (source animal id): 36) of at most 2 µg/mL. The minimum inhibitory concentration (isolate (source animal id): 37) was at most 2 µg/mL, the minimum inhibitory concentration (isolate (source animal id): 46) was at most 2 µg/mL and the minimum inhibitory concentration (isolate (source animal id): 48) was at most 2 µg/mL. The minimum inhibitory concentration (isolate (source animal id): 49) was at most 2 µg/mL, the minimum inhibitory concentration (isolate (source animal id): 54) was at most 2 µg/mL and the minimum inhibitory concentration (isolate (source animal id): 55) was at most 2 µg/mL. For the same compound, the minimum inhibitory concentration (isolate (source animal id): 58) was at most 2 µg/mL, the minimum inhibitory concentration (isolate (source animal id): 60) was at most 2 µg/mL and the minimum inhibitory concentration (isolate (source animal id): 61) was at most 2 µg/mL. The minimum inhibitory concentration (isolate (source animal id): 63) was at most 2 µg/mL, the minimum inhibitory concentration (isolate (source animal id): 64) was at most 2 µg/mL and the minimum inhibitory concentration (isolate (source animal id): 65) was at most 2 µg/mL. For the same compound, the minimum inhibitory concentration (isolate (source animal id): 66) was at most 2 µg/mL, the minimum inhibitory concentration (isolate (source animal id): 67) was at most 2 µg/mL and the minimum inhibitory concentration (isolate (source animal id): 69) was at most 2 µg/mL. For the same compound, the minimum inhibitory concentration (isolate (source animal id): 73) was at most 2 µg/mL, the minimum inhibitory concentration (isolate (source animal id): 75) was at most 2 µg/mL and the minimum inhibitory concentration (isolate (source animal id): 76) was at most 2 µg/mL. The minimum inhibitory concentration (isolate (source animal id): 77) was at most 2 µg/mL, the minimum inhibitory concentration (isolate (source animal id): 78) was at most 2 µg/mL and the minimum inhibitory concentration (isolate (source animal id): 80) was at most 2 µg/mL. For the same compound, the minimum inhibitory concentration (isolate (source animal id): 82) was at most 2 µg/mL, the minimum inhibitory concentration (isolate (source animal id): 83) was at most 2 µg/mL and the minimum inhibitory concentration (isolate (source animal id): 88) was over 2 µg/mL. It also gave a minimum inhibitory concentration (isolate (source animal id): 92) of at most 2 µg/mL, a minimum inhibitory concentration (isolate (source animal id): 94) of at most 2 µg/mL and a minimum inhibitory concentration (isolate (source animal id): 98) of at most 2 µg/mL. For the same compound, the minimum inhibitory concentration (isolate (source animal id): 104) was at most 2 µg/mL, the minimum inhibitory concentration (isolate (source animal id): 115) was over 2 µg/mL and the minimum inhibitory concentration (isolate (source animal id): 117) was at most 2 µg/mL. For the same compound, the minimum inhibitory concentration (isolate (source animal id): 118) was at most 2 µg/mL, the minimum inhibitory concentration (isolate (source animal id): 121) was over 2 µg/mL and the minimum inhibitory concentration (isolate (source animal id): 124) was at most 2 µg/mL. The minimum inhibitory concentration (isolate (source animal id): 125) was at most 2 µg/mL, the minimum inhibitory concentration (isolate (source animal id): 128) was over 2 µg/mL and the minimum inhibitory concentration (isolate (source animal id): 131) was at most 2 µg/mL. For the same compound, the minimum inhibitory concentration (isolate (source animal id): 135) was over 2 µg/mL, the minimum inhibitory concentration (isolate (source animal id): 136) was over 2 µg/mL and the minimum inhibitory concentration (isolate (source animal id): 140) was at most 2 µg/mL. It also gave a minimum inhibitory concentration (isolate (source animal id): 144) of at most 2 µg/mL, a minimum inhibitory concentration (isolate (source animal id): 146) of at most 2 µg/mL and a minimum inhibitory concentration (isolate (source animal id): 150) of over 2 µg/mL. The minimum inhibitory concentration (isolate (source animal id): 151) was over 2 µg/mL, the minimum inhibitory concentration (isolate (source animal id): 153) was at most 2 µg/mL and the minimum inhibitory concentration (isolate (source animal id): 155) was at most 2 µg/mL. For the same compound, the minimum inhibitory concentration (isolate (source animal id): 157) was at most 2 µg/mL, the minimum inhibitory concentration (isolate (source animal id): 160) was over 2 µg/mL and the minimum inhibitory concentration (isolate (source animal id): 164) was over 2 µg/mL. It also gave a minimum inhibitory concentration (isolate (source animal id): 165) of over 2 µg/mL, a minimum inhibitory concentration (isolate (source animal id): 167) of at most 2 µg/mL and a minimum inhibitory concentration (isolate (source animal id): 168) of at most 2 µg/mL. The minimum inhibitory concentration (isolate (source animal id): 169) was at most 2 µg/mL, the minimum inhibitory concentration (isolate (source animal id): 170) was at most 2 µg/mL and the minimum inhibitory concentration (isolate (source animal id): 171) was at most 2 µg/mL. It also gave a minimum inhibitory concentration (isolate (source animal id): 172) of at most 2 µg/mL, a minimum inhibitory concentration (isolate (source animal id): 173) of at most 2 µg/mL and a minimum inhibitory concentration (isolate (source animal id): 174) of at most 2 µg/mL. For the same compound, the minimum inhibitory concentration (isolate (source animal id): 175) was at most 2 µg/mL, the minimum inhibitory concentration (isolate (source animal id): 176) was at most 2 µg/mL and the minimum inhibitory concentration (isolate (source animal id): 177) was at most 2 µg/mL. For the same compound, the minimum inhibitory concentration (isolate (source animal id): 178) was at most 2 µg/mL, the minimum inhibitory concentration (isolate (source animal id): 179) was at most 2 µg/mL and the minimum inhibitory concentration (isolate (source animal id): 182) was at most 2 µg/mL. It also gave a minimum inhibitory concentration (isolate (source animal id): 192) of at most 2 µg/mL, a minimum inhibitory concentration (isolate (source animal id): 193) of at most 2 µg/mL and a minimum inhibitory concentration (isolate (source animal id): 195) of at most 2 µg/mL. It also gave a minimum inhibitory concentration (isolate (source animal id): 196) of at most 2 µg/mL, a minimum inhibitory concentration (isolate (source animal id): 197) of at most 2 µg/mL and a minimum inhibitory concentration (isolate (source animal id): 198) of at most 2 µg/mL. For the same compound, the minimum inhibitory concentration (isolate (source animal id): 199) was at most 2 µg/mL, the minimum inhibitory concentration (isolate (source animal id): 200) was at most 2 µg/mL and the minimum inhibitory concentration (isolate (source animal id): 201) was at most 2 µg/mL. For the same compound, the minimum inhibitory concentration (isolate (source animal id): 203) was at most 2 µg/mL, the minimum inhibitory concentration (isolate (source animal id): 204) was at most 2 µg/mL and the minimum inhibitory concentration (isolate (source animal id): 205) was at most 2 µg/mL. For the same compound, the minimum inhibitory concentration (isolate (source animal id): 206) was at most 2 µg/mL, the minimum inhibitory concentration (isolate (source animal id): 207) was at most 2 µg/mL and the minimum inhibitory concentration (isolate (source animal id): 208) was at most 2 µg/mL. For the same compound, the minimum inhibitory concentration (isolate (source animal id): 209) was at most 2 µg/mL, the minimum inhibitory concentration (isolate (source animal id): 210) was at most 2 µg/mL and the minimum inhibitory concentration (isolate (source animal id): 213) was at most 2 µg/mL. It also gave a minimum inhibitory concentration (isolate (source animal id): 216) of at most 2 µg/mL, a minimum inhibitory concentration (isolate (source animal id): 223) of at most 2 µg/mL and a minimum inhibitory concentration (isolate (source animal id): 227) of at most 2 µg/mL. The minimum inhibitory concentration (isolate (source animal id): 229) was at most 2 µg/mL, the minimum inhibitory concentration (isolate (source animal id): 233) was at most 2 µg/mL and the minimum inhibitory concentration (isolate (source animal id): 234) was at most 2 µg/mL. For the same compound, the minimum inhibitory concentration (isolate (source animal id): 237) was at most 2 µg/mL, the minimum inhibitory concentration (isolate (source animal id): 241) was at most 2 µg/mL and the minimum inhibitory concentration (isolate (source animal id): 245) was at most 2 µg/mL. It also gave a minimum inhibitory concentration (isolate (source animal id): 247) of at most 2 µg/mL, a minimum inhibitory concentration (isolate (source animal id): 250) of at most 2 µg/mL and a minimum inhibitory concentration (isolate (source animal id): 254) of at most 2 µg/mL. It also gave a minimum inhibitory concentration (isolate (source animal id): 255) of at most 2 µg/mL, a minimum inhibitory concentration (isolate (source animal id): 258) of at most 2 µg/mL and a minimum inhibitory concentration (isolate (source animal id): 261) of at most 2 µg/mL. For the same compound, the minimum inhibitory concentration (isolate (source animal id): 262) was at most 2 µg/mL, the minimum inhibitory concentration (isolate (source animal id): 269) was at most 2 µg/mL and the minimum inhibitory concentration (isolate (source animal id): 270) was at most 2 µg/mL. The minimum inhibitory concentration (isolate (source animal id): 274) was at most 2 µg/mL, the minimum inhibitory concentration (isolate (source animal id): 275) was at most 2 µg/mL and the minimum inhibitory concentration (isolate (source animal id): 276) was at most 2 µg/mL. It also gave a minimum inhibitory concentration (isolate (source animal id): 277) of at most 2 µg/mL, a minimum inhibitory concentration (isolate (source animal id): 278) of at most 2 µg/mL and a minimum inhibitory concentration (isolate (source animal id): 279) of at most 2 µg/mL. The minimum inhibitory concentration (isolate (source animal id): 280) was over 2 µg/mL, the minimum inhibitory concentration (isolate (source animal id): 284) was at most 2 µg/mL and the minimum inhibitory concentration (isolate (source animal id): 285) was at most 2 µg/mL. For the same compound, the minimum inhibitory concentration (isolate (source animal id): 287) was at most 2 µg/mL, the minimum inhibitory concentration (isolate (source animal id): 290) was at most 2 µg/mL and the minimum inhibitory concentration (isolate (source animal id): 294) was at most 2 µg/mL. It also gave a minimum inhibitory concentration (isolate (source animal id): 295) of at most 2 µg/mL, a minimum inhibitory concentration (isolate (source animal id): 296) of at most 2 µg/mL and a minimum inhibitory concentration (isolate (source animal id): 307) of at most 2 µg/mL. The minimum inhibitory concentration (isolate (source animal id): 310) was at most 2 µg/mL, the minimum inhibitory concentration (isolate (source animal id): 311) was at most 2 µg/mL and the minimum inhibitory concentration (isolate (source animal id): 312) was at most 2 µg/mL. The minimum inhibitory concentration (isolate (source animal id): 313) was at most 2 µg/mL, the minimum inhibitory concentration (isolate (source animal id): 315) was at most 2 µg/mL and the minimum inhibitory concentration (isolate (source animal id): 316) was at most 2 µg/mL. It also gave a minimum inhibitory concentration (isolate (source animal id): 318) of at most 2 µg/mL, a minimum inhibitory concentration (isolate (source animal id): 319) of at most 2 µg/mL and a minimum inhibitory concentration (isolate (source animal id): 320) of at most 2 µg/mL. The minimum inhibitory concentration (isolate (source animal id): 321) was at most 2 µg/mL, the minimum inhibitory concentration (isolate (source animal id): 322) was at most 2 µg/mL and the minimum inhibitory concentration (isolate (source animal id): 324) was at most 2 µg/mL. The minimum inhibitory concentration (isolate (source animal id): 325) was at most 2 µg/mL, the minimum inhibitory concentration (isolate (source animal id): 328) was at most 2 µg/mL and the minimum inhibitory concentration (isolate (source animal id): 330) was at most 2 µg/mL. For the same compound, the minimum inhibitory concentration (isolate (source animal id): 331) was at most 2 µg/mL, the minimum inhibitory concentration (isolate (source animal id): 333) was at most 2 µg/mL and the minimum inhibitory concentration (isolate (source animal id): 336) was at most 2 µg/mL. The minimum inhibitory concentration (isolate (source animal id): 337) was at most 2 µg/mL, the minimum inhibitory concentration (isolate (source animal id): 339) was at most 2 µg/mL and the minimum inhibitory concentration (isolate (source animal id): 340) was at most 2 µg/mL. For the same compound, the minimum inhibitory concentration (isolate (source animal id): 341) was at most 2 µg/mL.
